Experimental data reported in publication PMC7156724, “Potent BRD4 inhibitor suppresses cancer cell-macrophage interaction” (Nature Communications, 2020).
Where “and” joins values, the source holds several entries; their conditions need not be identical. Equal values may be shown once.

Key:
[1] = Metabolic stability assay, mouse liver microsomes; conditions: for Remaining in mouse liver microsomes (Sup Fig.6a): in % (unit assumed)
Procedure: 7. Metabolic stability assay. The metabolic profile of NHWD-870 was determined using mouse, rat, dog, monkey, and human liver microsomes using the protocols […]
No. Compound ID Exat Mass Stock Conc.
1) 100 mM potassium phosphate buffer, PH7.4; 2) 10mM MgCI2
1) Intermediate solution: Dilute 5 μL of compound or control from stock solution (10 mM) with 45 uL DMSO,then mixed with 450 μL 1:1 Methanol/Water (Conc.: 10 0 […]
2) Working solution: Dilute 50 μL from intermediate solution with 450 μL 100 mM potassium phosphate buffer (Conc.: 10 μM, 4.5%MeOH)
(3) NADPH regenerating system (final Isocitric dehydrogenase conc.= 1 unit/mL at […]
1) β-Nicotinamide adenine dinucleotide phosphate, Vendor: sigma Cat. No. N0505
2) Isocitric acid, Vendor: Sigma Cat. No. I1252
3) Isocitric dehydrogenase, Vendor: sigma Cat. No. I2002
(4) Liver microsome solution preparation (final concentration o f 0.5 mg protein/mL) […]
Cold ACN including 100 ng/mL Tolbutamide and 100 ng/mL Labetalol as internal […]
1) Add 10 μL compound or control working solution/well to all plates (T0, T5, T10, T20, T30, T60, NCF60) except matrix blank.
2) Dispense 680 μL/well microsome solution to 96-well plate as reserv oir according to […]
plate map. Then add 80 μL/well to every plate by Apricot, incubate the mixture of microsome solution and compound at 37℃ for about 10 min.
3) Add 10 μL 100 mM potassium phosphate buffer/well to NCF60, incubate at 37℃, […]
4) After pre-warming, dispense 90 μL/well NADPH regenerating system to 96-well plate as reservoir according to the plate map. Then add 10 μL/well to every plate by Apricot to start reaction.
5) Incubate at 37℃, start timer 2.
6) Add 300 (μL/well) stop solution (cold in 4℃, including 100 ng/mL Tolbutamide and 100 ng/mL Labetalol) to terminate the reaction.
7) The sampling plates are shaked for approx 10 min.
8) Samples are centrifuged at 4000 rpm for 20 min under 4℃.
9) While centrifuging, load 8×new 96-well plate with 300 μL HPLC water, then transfer 100 μL supernatant, mixed for LC/MS/MS.
Use equation of first order kinetics to calculate t1/2 and Clin t(mic): […]
(§1) Equation of first order kinetics: […]

[2] = Equilibrium dialysis assay, human plasma
Procedure: The concentration was calculated using the peak area ratio of analyte and internal […]
The results were calculated by the following equations:
% Unbound = 100 *FC / TC, % Bound = 100 * (1-FC / TC)
% Recovery = 100 * (FC + TC) / T0
TC = Total compound concentration as determined by the calculated concentration on the retentate side of the membrane
FC = Free compound concentration as determined by the calculated concentration on the dialysate side of the membrane […]
as §1
8. Equilibrium dialysis assay. Binding with plasma protein and recovery rate of NHWD-870 were performed with human, CD-1 mouse and SD rat plasma as […]
described 2. […] The concentration was […]
calculated using the peak area ratio of analyte and internal standard. The results were calculated by the following equations: % Unbound = 100 *FC / TC, % Bound = 100 * (1-FC / TC); % Recovery = 100 * (FC + TC) / T0; TC = Total compound concentration as determined by the calculated concentration on the retentate side of the membrane; FC = Free compound concentration as determined by the (1 picture or pasted object on this page, not shown here) […]
calculated concentration on the dialysate side of the membrane; T0 = To t a l compound concentration as determined before dialysis. […]
10. hERG channel assay. […]
HEK293 cell line stably

H526 cells = test: MTT cell growth assay, H526; assay type: cell-based, human; conditions: 5 days
Procedure: Fig. 2 NHWD-870 inhibited BRD4 phosphorylation and c-MYC expression, and suppressed cell growth. a Representative western blot analysis of p-BRD4 (s484/488), BRD4, c-MYC, and GAPDH after treatment of MDA-MB231, SUM159, A2780 ES-2, and H526 cells with JQ-1 or NHWD-870 at the indicated concentrations for 24 h. GAPDH served as the loading control. Selected from three independent experiments. b MTT assays of H526, A2780, ES-2, and MDA-MB231 cells treated with JQ-1 or NHWD-870 at the indicated concentrations for 5 days. Data are presented as mean ± SEM from three independent experiments. c, d Clonogenic assays of H526, A2780, ES-2 and MDA-MB231 cells treated with 250 nM JQ-1 or NHWD-870 for 5 days. Shown are representative images (c) and quantification of colonies (d). […] Shown are representative images (e) and quantification of relative colony sizes (f). Scale bar, 50 μm. Data are presented as mean ± SEM from five independent experiments. p values were calculated using two-tailed, unpaired t tests in this figure. **p < 0.01; ***p < 0.001. Source data are provided as a Source Data file.
37℃, 5% CO2. […]

[3] = mouse, liver microsomes, pH 7.4

Structure (SMILES): Cc1nnn(C)c1-c1cnc2c3c4cnn(C)c4ccc3n([C@H](c3ccccc3)C3CCOCC3)c2c1 [NHWD-870]
- Remaining (T=60min) ([1]; mouse liver microsomes): 36.2%
- Remaining (*NCF=60min) ([1]; mouse liver microsomes, no cofactor): 70.1%
- CLint scaled at 1 µM [1, 3]: 139 mL/min/kg
- half-life at 1 µM [1, 3]: 39.4 min
- microsomal CLint at 1 µM ([1]; mouse, microsomes, pH 7.4): 35.2 µL/min/mg
- Remaining in mouse liver microsomes (Sup Fig.6a) ([1]; time 0): 100
- Remaining in mouse liver microsomes (Sup Fig.6a) ([1]; time 5): 95.208
- Remaining in mouse liver microsomes (Sup Fig.6a) ([1]; time 10): 82.243
- Remaining in mouse liver microsomes (Sup Fig.6a) ([1]; time 20): 62.59
- Remaining in mouse liver microsomes (Sup Fig.6a) ([1]; time 30): 51.73
- Remaining in mouse liver microsomes (Sup Fig.6a) ([1]; time 60): 36.198
- % Bound ([2]; Human plasma, equilibrium dialysis): 97.5%
- fraction unbound ([2]; human, plasma): 0.025
- recovery ([2]; human, plasma): 92.8%
- MTT assay, relative cell number (H526 cells; H526, 0.1 nM): 0.977 and 0.969 and 0.948
- MTT assay, relative cell number (H526 cells; H526, 1 nM): 0.658 and 0.633 and 0.625
- MTT assay, relative cell number (H526 cells; H526, 10 nM): 0.268 and 0.226 and 0.235
- MTT assay, relative cell number (H526 cells; H526, 100 nM): 0.103 and 0.115 and 0.127
- MTT assay, relative cell number (H526 cells; H526, 500 nM): 0
- MTT assay, relative cell number (H526 cells; H526, 1000 nM): 0
- MTT assay, relative cell number (H526 cells; H526, 5000 nM): 0
- MTT assay, relative cell number (H526 cells; H526, 10000 nM): 0
